Assay results published in patent US7795457B2, “Carbamate compounds” (Kosan Biosciences Incorporated, priority 2007, dated 2010).
Read-outs that look alike come from different tables or passages of the source.

Key:
LNCap = experiment: Inhibition of tumor cell proliferation, LNCap; format: cell-based, human; details: read-out: Cancer Cell Line (IC50, nM) LNCap
Procedure: (§1) The biological activity of compounds of this invention was evaluated by measuring their inhibitory effect on the proliferation of various tumor cell lines. HCT-116 is a human colon cancer cell line. LNCap is a human prostate cancer cell line. SiHa is an HPV-16 positive human cervical cancer line.

HCT-116 = experiment: Inhibition of tumor cell proliferation, HCT-116; format: cell-based, human; details: read-out: Cancer Cell Line (IC50, nM) HCT-116
Procedure: as §1

SiHa = experiment: Inhibition of tumor cell proliferation, SiHa; format: cell-based, human; details: read-out: Cancer Cell Line (IC50, nM) SiHa
Procedure: as §1

CRM1 substrate RanBP1 = experiment: Nuclear export block (RanBP1 localization, recovery after compound removal); format: cell-based; details: recovery of cytoplasmic RanBP1 localization after compound washout (typically 1 h exposure; 8, 24 or 48 h recovery)
Procedure: The nuclear export blocking capability of compounds of this invention was evaluated as follows:
1-5×10^4 cells were seeded onto 12 mm glass coverslips or wells of a chamber slide (for example, Lab-Tek #177445). Cells were grown overnight at 37° C. to allow cells to attach to the surface. Media was removed and replaced with media containing the desired test compound and incubated the required time period (typically 1 h). For recovery experiments, cells were washed with PBS or media and incubated in media without test compound for the desired recovery periods (typically 8, 24, or 48 h). The media was removed and coverslips/wells were washed with PBS pH 7.4 for 1 minute. Coverslips or slides were fixed with 3.7% formaldehyde in PBS for 20 minutes at room temperature, washed three times in PBS, and stained for the CRM1 substrate RanBP1.
Coverslips or chamber slides were permeabilized and blocked in 10% donkey serum, 0.1% Triton X-100 in PBS for 30 minutes at room temperature. Primary antibodies were diluted in PBS and incubated for 1 hour at room temperature: goat-anti-RanBP1 (Santa Cruz Biotechnology, sc-1160; 1:50 dilution) and mouse-anti-tubulin (Sigma, T9026; 1:400). Cells were washed 3×5 minutes in PBS. Secondary antibodies donkey-anti-goat Cy3 (705-165-147, Jackson Immunoresearch) and donkey anti-mouse FITC (715-095-150, Jackson Immunoresearch) were diluted 1:200 in PBS and incubated for 1 hour at room temperature. Secondary antibody was removed and cells were stained with a nuclear dye such as DAPI (Sigma, D8417; 2.5 ug/mL in PBS) or Hoechst 33342 (Molecular Probes, H3570; 100 ng/mL in PBS) for 5 minutes at room temperature. Cells were washed 3×5 minutes in PBS and coverslips were mounted with FluorSave (EMD Biosciences, 80058-108). Nuclear (N) or cytoplasmic (C) localization of RanBP1 was examined using a 40× objective on a Zeiss Axiovert 200 inverted epiflourescence microscope. Nuclear localization (N>C) was confirmed after the initial drugging period.

## CNC(=O)OC/C=C(\C)C[C@H](C)[C@@H](O)[C@H](C)C(=O)[C@H](C)/C=C(C)/C=C/C[C@@H](C)/C=C(C)\C=C\[C@H]1CC=CC(=O)O1 [Compound A-2]
LNCap; Homo sapiens, LNCaP, 1 h
  IC50: 2.7 nM
LNCap; Homo sapiens, LNCaP, 72 h
  IC50: 0.4 nM
HCT-116; Homo sapiens, HCT-116, 1 h
  IC50: 3.7 nM
HCT-116; Homo sapiens, HCT-116, 72 h
  IC50: 0.7 nM
SiHa; Homo sapiens, SiHa, 1 h
  IC50: 1.2 nM
SiHa; Homo sapiens, SiHa, 72 h
  IC50: 0.4 nM
CRM1 substrate RanBP1
  Nuclear Export Block: Slow recovery

## CC(C=CC1CC=CC(=O)O1)=CC(C)CC=CC(C)=CC(C)C(=O)C(C)C(O)C(C)CC(C)=CCOC(=O)NCCN1CCCC1 (stereo not drawn) [Compound A-5]
LNCap; exposure time to compound 1 h
  IC50: 1.7 nM
LNCap; exposure time to compound 72 h
  IC50: 0.5 nM
HCT-116; exposure time to compound 1 h
  IC50: 2.2 nM
HCT-116; exposure time to compound 72 h
  IC50: 1.6 nM
SiHa; exposure time to compound 1 h
  IC50: 2.1 nM

## CC(C=CC1CC=CC(=O)O1)=CC(C)CC=CC(C)=CC(C)C(=O)C(C)C(O)C(C)CC(C)=CCOC(=O)NCCc1cccnc1 (stereo not drawn) [Compound A-6]
LNCap; exposure time to compound 1 h
  IC50: 2.8 nM
LNCap; exposure time to compound 72 h
  IC50: 0.4 nM
HCT-116; exposure time to compound 1 h
  IC50: 2.6 nM
HCT-116; exposure time to compound 72 h
  IC50: 0.8 nM
SiHa; exposure time to compound 1 h
  IC50: 2.1 nM
CRM1 substrate RanBP1
  Nuclear Export Block: Slow recovery

## CC(C=CC1CC=CC(=O)O1)=CC(C)CC=CC(C)=CC(C)C(=O)C(C)C(O)C(C)CC(C)=CCOC(=O)NCCN1CCOCC1 (stereo not drawn) [Compound A-7]
LNCap; exposure time to compound 1 h
  IC50: 1.7 nM
LNCap; exposure time to compound 72 h
  IC50: 0.4 nM
HCT-116; exposure time to compound 1 h
  IC50: 1.8 nM
HCT-116; exposure time to compound 72 h
  IC50: 0.4 nM
SiHa; exposure time to compound 1 h
  IC50: 0.5 nM

## CCN(CC)CCNC(=O)OCC=C(C)CC(C)C(O)C(C)C(=O)C(C)C=C(C)C=CCC(C)C=C(C)C=CC1CC=CC(=O)O1 (stereo not drawn) [Compound A-8]
LNCap; exposure time to compound 1 h
  IC50: 1.3 nM
LNCap; exposure time to compound 72 h
  IC50: 0.4 nM
HCT-116; exposure time to compound 1 h
  IC50: 2.6 nM
HCT-116; exposure time to compound 72 h
  IC50: 0.8 nM
SiHa; exposure time to compound 1 h
  IC50: 0.5 nM

## CC(C=CC1CC=CC(=O)O1)=CC(C)CC=CC(C)=CC(C)C(=O)C(C)C(O)C(C)CC(C)=CCOC(=O)NCCc1ccc(F)cc1 (stereo not drawn) [Compound A-9]
HCT-116; exposure time to compound 1 h
  IC50: 13.8 nM
SiHa; exposure time to compound 1 h
  IC50: 8.2 nM

## COCCNC(=O)OCC=C(C)CC(C)C(O)C(C)C(=O)C(C)C=C(C)C=CCC(C)C=C(C)C=CC1CC=CC(=O)O1 (stereo not drawn) [Compound A-10]
HCT-116; exposure time to compound 1 h
  IC50: 3.2 nM
SiHa; exposure time to compound 1 h
  IC50: 2.5 nM

## CC(C=CC1CC=CC(=O)O1)=CC(C)CC=CC(C)=CC(C)C(=O)C(C)C(O)C(C)CC(C)=CCOC(=O)NCCc1c(C)noc1C (stereo not drawn) [Compound A-11]
HCT-116; exposure time to compound 1 h
  IC50: 4.2 nM
SiHa; exposure time to compound 1 h
  IC50: 3.1 nM

## CC(C=CC1CC=CC(=O)O1)=CC(C)CC=CC(C)=CC(C)C(=O)C(C)C(O)C(C)CC(C)=CCOC(=O)NCc1ccc(F)cc1 (stereo not drawn) [Compound A-12]
HCT-116; exposure time to compound 1 h
  IC50: 13.9 nM
SiHa; exposure time to compound 1 h
  IC50: 5.8 nM

## CC(C=CC1CC=CC(=O)O1)=CC(C)CC=CC(C)=CC(C)C(=O)C(C)C(O)C(C)CC(C)=CCOC(=O)NCCN1CCCC1=O (stereo not drawn) [Compound A-13]
HCT-116; exposure time to compound 1 h
  IC50: 2.9 nM
SiHa; exposure time to compound 1 h
  IC50: 3.4 nM

## CC(C=CC1CC=CC(=O)O1)=CC(C)CC=CC(C)=CC(C)C(=O)C(C)C(O)C(C)CC(C)=CCOC(=O)NCCn1ccnc1 (stereo not drawn) [Compound A-14]
HCT-116; exposure time to compound 1 h
  IC50: 2.9 nM
SiHa; exposure time to compound 1 h
  IC50: 3.8 nM

## CC(=C/[C@H](C)C/C=C/C(C)=C/[C@@H](C)C(=O)[C@@H](C)[C@H](O)[C@@H](C)C/C(C)=C/COC(=O)NCc1cc(C)on1)/C=C/[C@H]1CC=CC(=O)O1 [Compound A-15]
HCT-116; Homo sapiens, HCT-116, 1 h
  IC50: 2.8 nM
SiHa; Homo sapiens, SiHa, 1 h
  IC50: 3.6 nM

## CC(=C/[C@H](C)C/C=C/C(C)=C/[C@@H](C)C(=O)[C@@H](C)[C@H](O)[C@@H](C)C/C(C)=C/COC(=O)NCc1ccccn1)/C=C/[C@H]1CC=CC(=O)O1 [Compound A-16]
HCT-116; Homo sapiens, HCT-116, 1 h
  IC50: 2.9 nM
SiHa; Homo sapiens, SiHa, 1 h
  IC50: 3.8 nM

## CC(=C/[C@H](C)C/C=C/C(C)=C/[C@@H](C)C(=O)[C@@H](C)[C@H](O)[C@@H](C)C/C(C)=C/COC(=O)NC[C@@H](O)CO)/C=C/[C@H]1CC=CC(=O)O1 [Compound A-17]
HCT-116; Homo sapiens, HCT-116, 1 h
  IC50: 3.6 nM
SiHa; Homo sapiens, SiHa, 1 h
  IC50: 3.2 nM

## CC(C=CC1CC=CC(=O)O1)=CC(C)CC=CC(C)=CC(C)C(=O)C(C)C(OC(N)=O)C(C)CC(C)=CCOC(=O)N(Cc1ccccc1)C(N)=O (stereo not drawn) [Compound A-18]
HCT-116; exposure time to compound 1 h
  IC50: 20.3 nM
SiHa; exposure time to compound 1 h
  IC50: 22.5 nM

## CC(=C/[C@H](C)C/C=C/C(C)=C/[C@@H](C)C(=O)[C@@H](C)[C@H](O)[C@@H](C)C/C(C)=C/COC(=O)NCc1nccs1)/C=C/[C@H]1CC=CC(=O)O1 [Compound A-19]
HCT-116; Homo sapiens, HCT-116, 1 h
  IC50: 4.4 nM
SiHa; Homo sapiens, SiHa, 1 h
  IC50: 4.5 nM

## CC(C=CC1CC=CC(=O)O1)=CC(C)CC=CC(C)=CC(C)C(=O)C(C)C(OC(N)=O)C(C)CC(C)=CCOC(=O)NCc1nccs1 (stereo not drawn) [Compound A-20]
HCT-116; exposure time to compound 1 h
  IC50: 9.4 nM
HCT-116; exposure time to compound 72 h
  IC50: 2.6 nM
SiHa; exposure time to compound 1 h
  IC50: 4.6 nM

## CC(=C/[C@H](C)C/C=C/C(C)=C/[C@@H](C)C(=O)[C@@H](C)[C@H](O)[C@@H](C)C/C(C)=C/COC(=O)NCc1ccc(C(F)(F)F)cn1)/C=C/[C@H]1CC=CC(=O)O1 [Compound A-21]
HCT-116; Homo sapiens, HCT-116, 1 h
  IC50: 20 nM
HCT-116; Homo sapiens, HCT-116, 72 h
  IC50: 3.1 nM
SiHa; Homo sapiens, SiHa, 1 h
  IC50: 11.5 nM

## CC(=C/[C@H](C)C/C=C/C(C)=C/[C@@H](C)C(=O)[C@@H](C)[C@H](O)[C@@H](C)C/C(C)=C/COC(=O)NCc1ccc(C(F)(F)F)nc1)/C=C/[C@H]1CC=CC(=O)O1 [Compound A-22]
HCT-116; Homo sapiens, HCT-116, 1 h
  IC50: 18.1 nM

## CC(=C/[C@H](C)C/C=C/C(C)=C/[C@@H](C)C(=O)[C@@H](C)[C@H](O)[C@@H](C)C/C(C)=C/COC(=O)NCc1cccc(C(F)(F)F)n1)/C=C/[C@H]1CC=CC(=O)O1 [Compound A-23]
HCT-116; Homo sapiens, HCT-116, 1 h
  IC50: 21.5 nM

## CC(=C/[C@H](C)C/C=C/C(C)=C/[C@@H](C)C(=O)[C@@H](C)[C@H](OC(N)=O)[C@@H](C)C/C(C)=C/CO)/C=C/[C@H]1CC=CC(=O)O1 [IV]
HCT-116; Homo sapiens, HCT-116, 1 h
  IC50: 8.1 nM
SiHa; Homo sapiens, SiHa, 1 h
  IC50: 3.3 nM

## CC(/C=C/C[C@@H](C)/C=C(C)/C=C/[C@@H]1OC(=O)C=C[C@@H]1C)=C\[C@@H](C)C(=O)[C@@H](C)[C@H](O)[C@@H](C)C/C(C)=C/C(=O)O [Leptomycin A, leptomycin A, reference compound]
HCT-116; exposure time to compound 1 h
  IC50: 19 nM
HCT-116; exposure time to compound 72 h
  IC50: 1.4 nM
SiHa; exposure time to compound 72 h
  IC50: 0.5 nM
CRM1 substrate RanBP1
  Nuclear Export Block: Fast recovery

## leptolstatin [reference compound]
HCT-116; exposure time to compound 1 h
  IC50: 5.5 nM
HCT-116; exposure time to compound 72 h
  IC50: 0.49 nM
SiHa; exposure time to compound 1 h
  IC50: 1.6 nM
SiHa; exposure time to compound 72 h
  IC50: 0.45 nM
CRM1 substrate RanBP1
  Nuclear Export Block: Slow recovery
